This note sets out measurements from patent US10144726B2, “Modulators of the p70S6 kinase for use in the treatment of brain disorders and triple-negative breast cancer” (SENTINEL ONCOLOGY LIMITED, priority 2015, dated 2018).

The structures appear in SMILES notation. Where two headings read alike, the source gives them in different places.

For one series, the system named is MCF-7 cells. In words: MCF-7 proliferation assay (Alamar blue, 72 h). In kind it is cell-based. The conditions noted are these: Homo sapiens, MCF7, 72 h; read-out: (c) MCF-7 proliferation IC50. Here is the method: The following assay was used to determine the ability of test compounds to inhibit cell growth.
The following protocol was used: • 1) MCF-7 cells were seeded in 96-well plates at 5000 cells per well and allowed to adhere overnight prior to addition of compound or vehicle control. • 2) Test compounds were prepared from 10 mM DMSO stocks to give a final concentration range of 100 μM, 30 μM, 10 μM, 3 μM, 1 μM, 0.3 μM, 0.1 μM, 0.03 μM, 0.01 μM and vehicle control. The DMSO content was constant at 1%. • 3) Test compounds were incubated with the cells for 72 h at 37° C. 5% CO2 in a humidified atmosphere. • 4) Alamar blue 10% (v/v) was then added and incubated for a further 6 h, and fluorescent product detected using the BMG FLUOstar plate reader. • 5) Data were analysed using a 4-parameter logistic equation in GraphPad Prism.
On the technique in general: Resazurin is reduced to fluorescent resorufin, in cell work by metabolically active cells.

Series [1] has as its system phosphorylation of S6 Ser235/236 in MCF-7 cells. In words: MCF-7 pS6 ELISA (phosphorylation of S6 Ser235/236). The series is classed as cell-based. The conditions noted are these: Homo sapiens, MCF7; S6 Ser235/236, 1% FBS, 2 h; read-out: (b) MCF-7 pS6 ELISA IC50. Here is the method:
The following assay provides IC50 values for inhibition of P70S6K activity in a whole cell assay by determining effects on the phosphorylation of S6^Ser235/236 in MCF-7 cells by ELISA.
The following protocol was used: • 1) MCF-7 cells were seeded in 96-well plates at a density of 7000 cells per well and allowed to adhere for 6 h in media containing 10% FBS. • 2) The full serum media was replaced and cells incubated overnight in media containing 1% FBS, prior to addition of test compounds. • 3) Test compounds were prepared from 10 mM DMSO stocks to give final concentration ranges as indicated on graphs. DMSO was constant at a final concentration of 1%. • 4) Test compounds were incubated with cells in duplicate for 2 h at 37° C/5% CO2 in a humidified atmosphere. • 5) The media was removed and cells were lysed by freeze-thawing in cell lysis buffer. • 6) Detection of phosphorylated S6Ser235/236 was then carried out using a PathScan ELISA kit (Cell Signaling Technology #7205). • 7) Lysates were diluted 1:1 with sample diluent before being applied to wells coated with an antibody against phosphorylated-S6 protein. • 8) The ELISA was then performed as stated in the manufacturers' instructions. • 9) The raw data were normalised to control values and analysed using a 4-parameter logistic equation in GraphPad Prism.

The target in the next series is p70S6K (h) (Homo sapiens, UniProt P23443). In words: Determination of p70S6 inhibitory activity (radiometric kinase assay). The series is classed as biochemical. Particulars: read-out: (a) p70S6K1 IC50. Here is the method:
The ability of compounds of the invention to inhibit P70S6 kinase was determined using the protocol below.
20 mM MOPS, 1 mM EDTA, 0.01% Brij-35, 5% Glycerol, 0.1% b-mercaptoethanol, 1 mg/mL BSA
In a final reaction volume of 25 μL, p70S6K (h) (5-10 mU) is incubated with 8 mM MOPS pH 7.0, 0.2 mM EDTA, 100 μM KKRNRTLTV, 10 mM Mg acetate and [γ-33P-ATP] (specific activity approx. 500 cpm/pmol, concentration as required). The reaction is initiated by the addition of the MgATP mix. After incubation for 40 minutes at room temperature, the reaction is stopped by the addition of 5 μL of a 3% phosphoric acid solution. 10 μL of the reaction mixture is then spotted onto a P30 filtermat and washed three times for 5 minutes in 75 mM phosphoric acid and once in methanol prior to drying and scintillation counting.

Series [2] in a line: Brain and plasma concentrations in an in vivo cassette mouse model. Details: species or system male CD-1 mice. Particulars: male, PO cassette, 2.5 mg/kg per compound. Here is the method: The compounds of this invention were evaluated in an in vivo cassette mouse model to determine brain and plasma concentrations following oral dosing. This is an industry-standard and recognised means to assess brain penetration of small molecules (for recent literature article, refer to In vitro permeability analysis, pharmacokinetic and brain distribution study in mice of imperatorin, isoimperatorin and cnidilin in Radix Angelicae Dahuricae, Fitoterapia, Volume 85, March 2013 , Pages 144-153). It is also recognised that higher brain concentrations (and higher ratios of brain: plasma concentration) lead to greater exposure in the brain—this is clearly advantageous if the brain is the site of action.
For a single cassette study, male CD-1 mice were used (n=3 per timepoint, two timepoints: 1.0 hr and 3.0 hr).
5 compounds were dosed PO per cassette (dose level 2.5 mg/kg per compound, dose conc. 0.25 mg/ml, dose volume 10.0 ml/kg).
Formulation used to solubilize compounds: 10% DMSO/90% hydroxypropyl-β-cyclodextrin (20% w/v aqueous)
Sampling was terminal and plasma and brain matrices were generated. To prepare plasma samples, protein was precipitated using acetonitrile. To prepare brain samples, homogenisation and protein precipitation was performed with acetonitrile. Samples were analysed using HPLC-TOF MS using electrospray ionisation.

Chain of p70S6K (h) (P23443 whole entry): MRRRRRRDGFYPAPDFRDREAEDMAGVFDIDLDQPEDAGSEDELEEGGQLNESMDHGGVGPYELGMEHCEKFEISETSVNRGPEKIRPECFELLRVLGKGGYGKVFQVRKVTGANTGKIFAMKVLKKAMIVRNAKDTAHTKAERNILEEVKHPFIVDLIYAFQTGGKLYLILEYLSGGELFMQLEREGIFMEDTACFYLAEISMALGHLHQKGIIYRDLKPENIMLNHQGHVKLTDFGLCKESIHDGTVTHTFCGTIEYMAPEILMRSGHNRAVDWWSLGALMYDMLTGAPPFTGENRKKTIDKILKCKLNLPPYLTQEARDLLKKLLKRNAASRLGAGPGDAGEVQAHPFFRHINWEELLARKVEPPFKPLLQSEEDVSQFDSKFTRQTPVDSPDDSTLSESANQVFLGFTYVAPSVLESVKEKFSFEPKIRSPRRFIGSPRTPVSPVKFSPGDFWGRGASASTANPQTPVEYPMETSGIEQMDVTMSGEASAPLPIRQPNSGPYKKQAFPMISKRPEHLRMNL

Regarding `C[C@@H](Nc1cnc2cc(-c3cn[nH]c3)ccc2n1)c1cccc(Cl)c1` [Example 15], the IC50 came to 12000 nM in the series with MCF-7 cells, 500 nM in series [1] and 6 nM at p70S6K (h). Also, the concentration at 3 h in series [2] (CD-1, brain, read-out: (d) Brain conc. at 3 hours) amounted to 2430 nM; in series [2] (CD-1, plasma, read-out: (d) Plasma conc. at 3 hours), 1190 nM. In addition, the Kp at 3 h in series [2] (CD-1, brain, read-out: (d) Brain: Plasma ratio at 3 hours) worked out at 2.
